The numbers were not newly measured in patent publication US20230017920A1, “SHELF-STABLE HYPOCHLOROUS ACID” (priority 2019, published 2023), which cites them from elsewhere.

In this data set the test system is individual bacterial cells. The conditions noted are these: various studies, H Park et al., Int J Food Microbiol 91 (2004) 13-18.

On to `OCl` [HOCl, hypochlorous acid], for which the “time to kill individual bacterial cells” value is reported as “within seconds”.
